We go through ten compounds from patent US9518038B2, “Condensation product of theanine derivative and carboxylic acid coumarin derivative, its intermediate, preparation method and use thereof” (SHANDONG YINGDONG YINGHAO BIOTECHNOLOGY, INC., priority 2012, dated 2016).

Marks after values point to notes of the source that are not given here.

Test [1] relates to highly metastatic Lewis lung cancer cell lines. Kind of test: MTT growth inhibition, LLC cells. The test is classed as cell-based, mouse. Conditions: Mus musculus, Lewis lung carcinoma, 72 h after treatment, read-out: Drug concentration (IC50) at which 50% cancer cells survived. From the text: Cell lines and cell culture: human lung cancer cells A549 and H460, human breast cancer cells MCF-7 and MDA-MB-231, human gastric cancer cells BGC-823, human prostate cancer cells PC-3, human chronic leukemia cells K562, human lymphoma cells U937, human liver cancer cells SMMC7721 and HepG2, human colon cancer cells HT29, human pancreatic cancer cells PANC-1 and BxPC3, human cervical cancer Hela cell lines, human brain tumor cells Daoy, human neuroma cells D54 and human oral epidermoid cancer cells KBV200 line with strong drug resistance, mouse melanoma cells B16, and highly metastatic Lewis lung cancer cell lines were purchased from American Type Culture Collection of the U.S. These cells were cultured with DMEM and RPMI-1640 culture solutions separately.
The procedure was as follows:
(1) 0.25% trypsin was used to digest cancer cells in a logarithmic growth phase to prepare a single-cell suspension, the concentration of cells was adjusted to 5×10^4/mL, and the adjusted suspension was inoculated into a 96-well culture plate with 100 μl per well;
(2) The culture plate was transferred into a 37° C. incubator with a saturated humidity and 5% of CO2 and cultured for 24 h; the compounds and the intermediates thereof obtained in embodiments 1-7 and the compound as represented by formula (IIIa) or the positive control anti-cancer drug with the concentration of 1-1000 μM/L were added to enable the final concentration to be 0.1-1500 μM/L. Control wells (only added with 200 μl of cell suspension) and drug-free blank control wells (containing the solvent of 0.01% DMSO) were set, each group included 8 wells, and the plate was placed into the 37° C. incubator with saturated humidity and 5% of CO2 for culturing;
(3) The 96-well plate was taken out at 48 h and 72 h after dosing, the original culture medium was carefully removed by suction, 100 μl of serum-free DMEM culture medium and 10 μl of MTT (5 mg/mL) solution were added in each well. The plate was continuously cultured for another 4 h and then the culture was terminated;
(4) The supernatant in the wells was carefully removed by suction, each well was added with 150 μl of DMSO and shaked at room temperature for 10-15 min to fully dissolve crystals.
(5) Colorimetric analysis: the wavelength was selected as 570 nm, the light absorbance (A value) of each well was determined on the microplate reader and the results were recorded; the experiment was repeated for three times;
(6) the experimental results were calculated according to the following formula: relative survival rate=(A value of each experimental group/A value of cell control group)×100%
Calculation of median-effect concentration (IC50, namely the drug concentration at which the inhibition rate is 50%, also known as half inhibitory concentration):
IC50 of the detected component was calculated by using a regression equation.

Test [2] concerns MMP-9. The experiment in a line: Western Blotting, MMP9 level. The test is classed as cell-based. The following applies: human liver cancer cells, Lewis lung cancer cells and other cancer cell lines and tumor tissues, read-out: Effective concentration (IC50) for inhibition of MMP9. An excerpt:
(§1) Antibodies: primary antibodies of VEGFR, EGFR, c-Met, K-Ras, H-Ras, Akt, NF-κB, Cyclin D1, ER-alpha, Dvl-1, Dvl-2, Dvl-3, MMP-9, MMP2, β-catenin, Bcl-2, Bax, p53, p21, E-cadherin and Caspase3 protein, purchased from American Cell Signaling Technology Company and Santa Cruz Technology Company; and H3 acetylation, H4 acetylation and HDAC (HDAC3, HDAC4 and the like) Antibody Sample Kits, purchased from Cell Signaling Technology Company of the U.S.
(§2) (3) polyacrylamide gel electrophoresis (SDS-PAGE): an equal amount of protein lysate sample was used to separate protein, film transfer, and blocking, treated with appropriate primary antibodies and secondary antibodies in sequence, and the film was washed, then the color was developed with ECL kit, and a blot protein band was detected by exposure of an X-ray film; and a Gel-Pro Analyzer was used for quantitative analysis of gray degree, optical density value of the control group and the drug treatment group in various concentration were respectively compared with that of internal reference, the obtained ratios were respectively compared with the control group, and the protein expression level was semi-quantified.

Test [3] concerns Dvl-3. Kind of test: Western Blotting, Dvl-3 level. The following applies: human liver cancer cells, Lewis lung cancer cells and other cancer cell lines and tumor tissues, read-out: Effective concentration (IC50) for inhibition of DVl-3. Type of test: cell-based.
Description: as §1, §2

For test [4], the system named is MMP-2. The experiment in a line: Western Blotting, MMP2 level. The test is classed as cell-based. The following applies: human liver cancer cells, Lewis lung cancer cells and other cancer cell lines and tumor tissues, read-out: Effective concentration (IC50) for inhibition of MMP2.
Description: as §1, §2

The test system of test [5] is ER-alpha. Kind of test: Western Blotting, ER-alpha level. Type of test: cell-based. The following applies: human liver cancer cells, Lewis lung cancer cells and other cancer cell lines and tumor tissues, read-out: Effective concentration (IC50) for inhibition of ER-alpha.
Description: as §1, §2

Test [6] deals with Dvl-2. The experiment in a line: Western Blotting, Dvl-2 level. The following applies: human liver cancer cells, Lewis lung cancer cells and other cancer cell lines and tumor tissues, read-out: Effective concentration (IC50) for inhibition of Dvl-2. Type of test: cell-based.
Description: as §1, §2

In test [7] the test system is HDAC4. Kind of test: HDAC4 enzyme activity in nuclear extracts of LLC tumors of treated mice. Conditions: LLC tumor grown in vivo; second value of the pair HDAC3 and HDAC4; SAHA 25 mg/kg.
Description: (§3) For the detection of the effect of the drugs on enzyme activity of EZH2 and HDAC of in-vivo tumors, the tumors were separately excised after 6 h of medication, total proteins and nucleoproteins were extracted separately to detect and analyze the activity of the enzyme.
(§4) (2) 50 μl of diluted sample solution was added into each reaction well, the plate was sealed with a plate-sealing film and reacted at room temperature for 30 min;
(§5) (3) the plate-sealing film was carefully peeled off, the liquid was removed, dried, 150 μl of washing liquid was added into each well, stood for 30 s, then the liquid was removed, repeated twice, and dried;
(§6) (4) 2 μl of HDAC enzyme or tumor tissue nuclear extracts was respectively uniformly mixed with 28 μl of diluted sample solution, added into the wells, the plate was sealed with the plate-sealing film and reacted at 37° C. for 60 min;
(§7) (5) the plate was washed for three times, wherein the operation was the same as that in (3); and a diluted antibody capture working solution was added into each reaction well according to 50 μl/well and reacted on a shaking bed at room temperature for 60 min; […]
(§8) (10) the light absorbance (OD value) of each well was measured in sequence at the wavelength of 450 nm; wherein the measurement should be performed within 15 min after addition of the stop solution; and
In test [8] the test system is HDAC3. Kind of test: HDAC3 enzyme activity in nuclear extracts of LLC tumors of treated mice. The following applies: LLC tumor grown in vivo; first value of the pair HDAC3 and HDAC4; SAHA 25 mg/kg.
Description: as §3, §4, §5, §6, §7, §8
The target in test [9] is T1, EZH2 (Mus musculus, UniProt Q61188).
T1 construct: the EZH2 enzyme was replaced with tumor protein extracts in each group; from tissue; host or cells: Lewis lung cancer tumours from treated mice
Kind of test: EZH2 enzyme activity in protein extracts of LLC tumors of treated mice (EZH2 Assay Kit). Conditions: LLC tumor grown in vivo; tumors excised 6 h after medication; SAHA 25 mg/kg.

T1 sequence (Q61188 whole entry): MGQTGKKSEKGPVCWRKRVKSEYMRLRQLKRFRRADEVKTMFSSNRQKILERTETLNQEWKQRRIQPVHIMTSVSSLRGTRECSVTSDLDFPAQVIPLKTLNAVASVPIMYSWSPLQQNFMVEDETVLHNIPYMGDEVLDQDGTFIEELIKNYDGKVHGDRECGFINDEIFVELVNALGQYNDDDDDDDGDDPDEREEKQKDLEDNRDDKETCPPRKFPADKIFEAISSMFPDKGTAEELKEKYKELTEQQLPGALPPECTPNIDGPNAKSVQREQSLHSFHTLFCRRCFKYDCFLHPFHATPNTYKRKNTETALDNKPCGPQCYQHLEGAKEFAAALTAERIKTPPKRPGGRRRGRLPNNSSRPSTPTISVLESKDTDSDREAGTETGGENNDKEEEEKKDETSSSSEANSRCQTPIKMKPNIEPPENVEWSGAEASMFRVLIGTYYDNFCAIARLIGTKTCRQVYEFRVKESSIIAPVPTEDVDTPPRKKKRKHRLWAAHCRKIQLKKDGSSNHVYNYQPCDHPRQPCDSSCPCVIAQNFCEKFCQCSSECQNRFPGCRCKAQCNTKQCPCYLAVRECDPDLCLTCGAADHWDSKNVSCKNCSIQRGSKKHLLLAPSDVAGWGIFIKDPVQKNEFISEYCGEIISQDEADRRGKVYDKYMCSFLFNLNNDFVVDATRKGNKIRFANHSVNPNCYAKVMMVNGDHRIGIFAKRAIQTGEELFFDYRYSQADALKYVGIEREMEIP
T1 sequence (Q921E6 whole entry partner): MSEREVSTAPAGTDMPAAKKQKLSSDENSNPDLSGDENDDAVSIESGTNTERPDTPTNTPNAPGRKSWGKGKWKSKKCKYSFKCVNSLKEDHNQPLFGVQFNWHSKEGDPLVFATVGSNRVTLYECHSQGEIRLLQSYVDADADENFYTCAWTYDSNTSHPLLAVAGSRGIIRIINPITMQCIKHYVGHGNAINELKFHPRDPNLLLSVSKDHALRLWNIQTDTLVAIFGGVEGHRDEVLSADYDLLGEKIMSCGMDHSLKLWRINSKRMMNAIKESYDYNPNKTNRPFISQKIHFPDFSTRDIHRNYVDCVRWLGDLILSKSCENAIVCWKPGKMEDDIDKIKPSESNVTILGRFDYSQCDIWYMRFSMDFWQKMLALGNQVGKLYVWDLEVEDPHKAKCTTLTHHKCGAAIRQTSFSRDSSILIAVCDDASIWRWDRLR
T1 sequence (Q80U70 whole entry partner): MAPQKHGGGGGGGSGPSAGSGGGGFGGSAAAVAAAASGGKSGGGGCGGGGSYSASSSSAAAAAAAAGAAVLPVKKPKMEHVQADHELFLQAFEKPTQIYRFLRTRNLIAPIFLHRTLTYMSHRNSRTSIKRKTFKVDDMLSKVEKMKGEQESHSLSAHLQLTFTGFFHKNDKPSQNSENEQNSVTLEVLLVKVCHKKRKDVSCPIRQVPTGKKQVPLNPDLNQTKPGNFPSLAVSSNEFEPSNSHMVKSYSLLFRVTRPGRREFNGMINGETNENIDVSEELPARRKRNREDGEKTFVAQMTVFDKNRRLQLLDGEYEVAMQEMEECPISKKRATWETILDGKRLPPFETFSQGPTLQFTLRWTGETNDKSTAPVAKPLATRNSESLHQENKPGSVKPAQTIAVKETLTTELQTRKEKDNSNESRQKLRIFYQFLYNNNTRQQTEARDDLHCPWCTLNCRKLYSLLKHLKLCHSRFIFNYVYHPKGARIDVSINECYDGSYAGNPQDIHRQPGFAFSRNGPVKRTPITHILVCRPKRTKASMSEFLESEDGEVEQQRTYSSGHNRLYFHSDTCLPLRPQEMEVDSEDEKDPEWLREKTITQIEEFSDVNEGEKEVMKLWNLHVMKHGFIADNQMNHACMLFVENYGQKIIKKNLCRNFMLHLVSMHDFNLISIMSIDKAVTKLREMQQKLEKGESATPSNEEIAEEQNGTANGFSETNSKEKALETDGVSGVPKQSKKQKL

`CCNC(=O)CC[C@H](N)C(=O)OC` [Compound IIa, theanine methyl ester]: the IC50 in [1] amounted to 100 µM.
The same measure, in the same setting: the value for `CCNC(=O)CC[C@@H](NC(=O)c1cc2cc(Cl)ccc2oc1=O)C(=O)OCC` [Compound Ic, (R)-2-(6-CI-2-oxo-2H-benzopyran-3-carboxamido)-5-ethylamino-5-oxo-pentanoic acid ethyl ester] was 131 µM.
For the compound `CCNC(=O)CC[C@@H](NC(=O)c1cc2cc(Br)cc(Br)c2oc1=O)C(=O)OCC` [Compound Ih, (R)-2-(6,8-dibromo-2-oxo-2H-benzopyran-3-carboxamido)-5-ethylamino-5-oxo-pentanoic ethyl ester], the IC50 in test [1] was 53 µM; in test [2], less than 65 µM; in test [3], less than 100 µM; in [4], less than 50 µM; in [5], less than 100 µM; in test [6], less than 100 µM.
With `CCNC(=O)CCC(NC(=O)c1cc2cc(F)ccc2oc1=O)C(=O)OCC` (stereo in doubt) [Compound Ie, (R)-2-(6-F-2-oxo-2H-benzopyran-3-carboxamido)-5-ethylamino-5-oxo-pentanoic acid ethyl ester], the IC50 in test [1] was found to be 110 µM.
As to `CCNC(=O)CC[C@@H](NC(=O)c1cc2cc(Cl)cc(Cl)c2oc1=O)C(=O)OCC` [Compound Ig, (R)-2-(6,8-dichloro-2-oxo-2H-benzopyran-3-carboxamido)-5-ethylamino-5-oxo-pentanoic ethyl ester], the IC50 in [1] was 36 µM; in test [2] it was less than 65 µM; in test [3], less than 100 µM; in test [4], less than 50 µM; in [5] it was less than 100 µM; in test [6] it was less than 100 µM.
On to `CCNC(=O)CCC(NC(=O)c1cc2ccccc2oc1=O)C(=O)OCC` (centres unmarked) [Compound Ib, ethyl 5-ethylamino-5-oxo-2-(2-oxo-2H-benzopyran-3-carboxamido)pentanoate], for which the IC50 in test [1] worked out at 115 µM.
Turning to `CCNC(=O)CCC(NC(=O)c1cc2cc([N+](=O)[O-])ccc2oc1=O)C(=O)OCC` (stereo in doubt) [Compound If, (R)-2-(6-nitro-2-oxo-2H-benzopyran-3-carboxamido)-5-ethylamino-5-oxo-pentanoic acid ethyl ester], in test [1], the IC50 amounted to 100 µM.
Turning to `CCNC(=O)CCC(NC(=O)c1cc2ccccc2oc1=O)C(=O)OC` (centres unmarked) [Compound Ia, methyl 5-ethylamino-5-oxo-2-(2-oxo-2H-benzopyran-3-carboxamido)pentanoate], the IC50 in test [1] came to 185 µM. In addition, in [7], the “decrease of HDAC4 enzyme activity/inhibition rate” value is listed as 52%*(LLC)-. Moreover, the “decrease of HDAC3 enzyme activity/inhibition rate” value in [8] is on record as 55%* and. For the same compound, the “decrease of EZH2 enzyme activity/inhibition rate” value in [9] is reported as 52%(LLC)-.
Regarding `CCNC(=O)CC[C@@H](NC(=O)c1cc2cc(Br)ccc2oc1=O)C(=O)OCC` [Compound Id, (R)-2-(6-Br-2-oxo-2H-benzopyran-3-carboxamido)-5-ethylamino-5-oxo-pentanoic acid ethyl ester], in [1], the IC50 amounted to 116 µM.
On the same count and under the same terms, the value for `CCNC(=O)CC[C@H](N)C(=O)OCC` [Compound IIb, theanine ethyl ester] was 300 µM.
